The first assay concerns MHC-I expression by COLO 205 cells. As to the kind of experiment: cells. The assay is classed as cell-based, human.
Conditions: not given
The procedure:
A panel of synthetic cannabinoids (Cayman Chemical, #9002891) was tested for MHC class I-inducing capability in COLO 205 cells as described above. COLO 205 cells were treated with the compounds at a concentration of 35 μM and evaluated for cell surface MHC class I expression after 48 hours. Cells were harvested, stained with MHC-I mAb W6/32 (Thermo Fisher). MHC-I expression was determined by flow cytometry.
Turning to `CCCCCn1cc(C(=O)Cc2cccc(OC)c2)c2ccccc21` [Example 28, 2-(3-methoxyphenyl)-1-(1-pentyl-1H-indol-3-y1)-ethanone], the “Induction Fold” value came to 3.42 Fold.
On the same count and under the same terms, to `O=C(Oc1cccc2cccnc12)c1cn(CC2CCCCC2)c2ccccc12` [Example 38, 1-(cyclohexylmethyl)-8-quinolinyl ester-1H-indole-3-carboxylic acid] belongs 3.15 Fold.
Still for that read-out and setting: to `O=C(c1cccc2ccccc12)c1cn(CCN2CCOCC2)c2ccccc12` [Example 57, [1-[2-(4-morpholinyl)ethyl]-1H-indol-3-yl]-1-naphthalenyl-methanone] belongs 2.89 Fold; to `CCCCCn1cc(C(=O)c2cccc3ccccc23)cc1-c1ccccc1C` [Example 60, [5-(2-methylphenyl)-1-pentyl-1H-pyrrol-3-yl]-1-naphthalenyl-methanone], 2.85 Fold; to `CCCn1cc(C(=O)c2cccc3ccccc23)c2ccccc21` [Example 65, 1-naphthalenyl(1-propyl-1H-indol-3-yl)-methanone], 2.77 Fold.
On to `CCCCCn1ccc(C(=O)c2cccc3ccccc23)c1` [Example 66, 1-naphthalenyl(1-pentyl-1H-pyrrol-3-yl)-methanone], for which the “Induction Fold” value was determined as 2.75 Fold.

The same assay, now with this note: Homo sapiens, COLO 205, 48 h, MHC-I expression, COLO 205 cells, compounds at 35 μM, 48 hours, flow cytometry (W6/32); read-out: Induction Fold.
In the case of `CCCCCn1cc(C(=O)Oc2ccc3cccnc3c2)c2ccccc21` [Example 18, quinolin-7-yl 1-pentyl-1H-indole-3-carboxylate], the fold induction at 35 µM amounted to 4.08.
On the same count and under the same terms, as for `O=C(Oc1cncc2ccccc12)c1cn(CCCCCF)c2ccccc12` [Example 19, isoquinolin-4-yl 1-(5-fluoropentyl)-1H-indole-3-carboxylate], the figure is 4.06; as for `CCCCCn1cc(C(=O)c2ccccc2OC)c2ccccc21` [Example 20, (2-methoxyphenyl)(1-pentyl-1H-indol-3-yl)-methanone], 3.98; as for `COc1ccc(C(=O)c2cn(CCN3CCOCC3)c3ccccc23)c2ccccc12` [Example 21, (4-methoxy-1-naphthalenyl)[1-[2-(4-morpholinyl)ethyl]-1H-indol-3-yl]-methanone], 3.85.
`CCCCn1cc(C(=O)c2c(C)ccc3ccccc23)c2ccccc21` [Example 22, (1-butyl-1H-indol-3-yl)(2-methylnaphthalen-1-yl)methanone]: the fold induction at 35 µM amounted to 3.84.
Same read-out and setting: to `CN1CCCC[C@@H]1Cn1cc(C(=O)c2cc([N+](=O)[O-])ccc2I)c2ccccc21` [Example 23, (2-iodo-5-nitrophenyl)[1-[[(2R)-1-methyl-2-piperidinyl]methyl]-1H-indol-3-yl]methanone] belongs 3.64.
The same measure, in the same setting: to `CN1CCCCC(n2cc(C(=O)c3ccccc3I)c3ccccc32)C1` (stereo not shown) [Example 24, (2-iodophenyl)(1-(1-methylazepan-3-yl)-1H-indol-3-yl)methanone] belongs 3.64; to `CCCCCn1cc(C(=O)c2c(C)ccc3ccccc23)c2ccccc21` [Example 25, (2-methylnaphthalen-1-yl)(1-pentyl-1H-indol-3-yl)methanone], 3.6; to `Cc1c(C(=O)c2ccccc2)c(N)c(-c2ccccc2)n1Cc1ccc(Cl)cc1` [Example 27, [4-amino-1-[(4-chlorophenyl)methyl]-2-methyl-5-phenyl-1H-pyrrol-3-yl]phenyl-methanone], 3.43.
The same measure, in the same setting: as for `NC(=O)[C@H](Cc1ccccc1)NC(=O)c1nn(CC2CCCCC2)c2ccccc12` [Example 29, N-[(1S)-2-amino-2-oxo-1-(phenylmethyl)ethyl]-1-(cyclohexylmethyl)-1H-Indazole-3-carboxamide], the figure is 3.41; as for `O=C(Oc1ccc2ncccc2c1)c1cn(CCCCCF)c2ccccc12` [Example 30, quinolin-6-yl 1-(5-fluoropentyl)-1H-indole-3-carboxylate], 3.4; as for `CCCCCn1cc(C(=O)c2ccccc2I)c2ccccc21` [Example 36, (2-iodophenyl)(1-pentyl-1H-indol-3-yl)-methanone], 3.3.
On to `CCC(Cl)CCn1cc(C(=O)C2C(C)(C)C2(C)C)c2ccccc21` (stereo not shown) [Example 37], for which the fold induction at 35 µM was 3.3.
Still for that read-out and setting: as for `CCCCCCC(C)(C)c1ccc([C@@H]2CCC[C@H](O)C2)c(O)c1` [Example 39, 2[(1R,3S)-3-hydroxycyclohexyl]-5-(2-methyloctan-2-yl)phenol], the figure is 3.14; as for `O=C(c1cccc2ccccc12)c1nc2ccccc2n1CCCCCF` [Example 40, (1-(5-fluoropentyl)-1H-benzo[d]imidazol-2-yl)(naphthalen-1-yl)methanone], 3.14; as for `CC(C)Cn1cc(C(=O)c2cccc3ccccc23)c2ccccc21` [Example 41, (1-isobutyl-1H-indol-3-yl)(naphthalen-1-yl)methanone], 3.11.
On the same count and under the same terms, as for `COc1cccc(CC(=O)c2cn(CCC3CCCCC3)c3ccccc23)c1` [Example 42, 1-(1-(2-cyclohexylethyl)-1H-indol-3-yl)-2-(3-methoxyphenyl)ethanone], the figure is 3.07.
Still for that read-out and setting: as for `COc1cccc2c(C(=O)N[C@@H]3C(C)(C)[C@@H]4CC[C@@]3(C)C4)cn(CCN3CCOCC3)c12` [Example 43, 7-methoxy-1-[2-(4-morpholinyl)ethyl]-N-[(1S,2 S,4R)-1,3,3-trimethylbicyclo[2.2.1]hept-2-yl]-1H-indole-3-carboxamide], the figure is 3.06; as for `COc1ccc(CC(=O)c2cn(CCC3CCCCC3)c3ccccc23)cc1` [Example 44, 1-(1-(2-cyclohexylethyl)-1H-indol-3-yl)-2-(4-methoxyphenyl)ethanone], 3.03.
As to `CCC(F)CCn1cc(C(=O)Oc2cccc3cccnc23)c2ccccc21` (stereo not shown) [Example 45, quinolin-8-yl 1-(3-fluoropentyl)-1H-indole-3-carboxylate], the fold induction at 35 µM amounted to 3.02.
On to `O=C(Oc1ccc2cccnc2c1)c1cn(CC2CCCCC2)c2ccccc12` [Example 47, quinolin-7-yl 1-(cyclohexylmethyl)-1H-indole-3-carboxylate], for which the fold induction at 35 µM worked out at 3.01.
Same read-out and setting: to `CCC(CC)n1cc(C(=O)c2cccc3ccccc23)c2ccccc21` [Example 48, naphthalen-1-yl(1-(pentan-3-yl)-1H-indol-3-yl)methanone] belongs 3; to `CC(C)(C)Cn1cc(C(=O)c2cccc3ccccc23)c2ccccc21` [Example 49, naphthalen-1-yl(1-neopentyl-1H-indol-3-yl)-methanone], 3.
On the same count and under the same terms, as for `CCCCCn1cc(C(=O)c2cccc3cccc(Cl)c23)c2ccccc21` [Example 50, (8-chloronaphthalen-1-yl)(1-pentyl-1H-indol-3-yl)methanone], the figure is 3; as for `CC1(C)C(C(=O)c2cn(CCCCCF)c3ccccc23)C1(C)C` [Example 51, (1-(5-fluoropentyl)-1H-indol-3-yl)(2,2,3,3-tetramethylcyclopropyl)methanone], 2.99.
As to `CCCCCn1cc(C(=O)Oc2cncc3ccccc23)c2ccccc21` [Example 52, isoquinolin-4-yl 1-pentyl-1H-indole-3-carboxylate], the fold induction at 35 µM is 2.98.
Same read-out and setting: as for `CCCCCn1cc(C(=O)Oc2ccc3cnccc3c2)c2ccccc21` [Example 53, isoquinolin-6-yl 1-pentyl-1H-indole-3-carboxylate], the figure is 2.97; as for `O=C(c1ccccc1I)c1cn(CCCCCF)c2ccccc12` [Example 54, [1-(5-fluoropentyl)-1H-indol-3-yl](2-iodophenyl)-methanone], 2.93; as for `N#CCCCCn1cc(C(=O)c2cccc3ccccc23)c2ccccc21` [Example 55, 3-(1-naphthalenylcarbonyl)-1H-Indole-1-pentanenitrile], 2.92.
On the same count and under the same terms, as for `CCCCCn1cc(C(=O)c2cccc(OC)c2)c2ccccc21` [Example 56, (3-methoxyphenyl)(1-pentyl-1H-indol-3-yl)methanone], the figure is 2.9.
On the same count and under the same terms, as for `CCC(C)Cn1cc(C(=O)c2cccc3ccccc23)c2ccccc21` (stereo not shown) [Example 58, N-(2-methylbutyl)-3-(1-naphthoyl)-indole], the figure is 2.86; as for `CCCCCn1cc(C(=O)Cc2ccc(OC)cc2)c2ccccc21` [Example 59, 2-(4-methoxyphenyl)-1-(1-pentyl-1H-indol-3-yl)-ethanone], 2.85; as for `CC1(C)C(C(=O)c2cn(Cc3ccc(F)cc3)c3ccccc23)C1(C)C` [Example 62, (1-(4-fluorobenzyl)-1H-indol-3-yl)(2,2,3,3-tetramethylcyclopropyl)methanone], 2.79.
With `CCCCCn1cc(C(=O)Cc2ccc(Cl)cc2)c2ccccc21` [Example 64, 2-(4-chlorophenyl)-1-(1-pentyl-1H-indol-3-yl)-ethanone], the fold induction at 35 µM turned out to be 2.77.

Staying with this assay, now noted: MHC-I expression, COLO 205 cells, compounds at 35 μM, 48 hours, flow cytometry (W6/32).
With `COC(=O)[C@@H](NC(=O)c1cn(CC2CCCCC2)c2ccccc12)C(C)(C)C` [Example 31, N-[[1-(cyclohexylmethyl)-1H-indol-3-yl]carbonyl]-3-methyl-1-valine, methyl ester], the “Induction Fold” value is 3.35 Fold.
On the same count and under the same terms, to `COC(=O)[C@@H](NC(=O)c1nn(Cc2ccc(F)cc2)c2ccccc12)C(C)(C)C` [Example 46, N-[[1-[(4-fluorophenyl)methyl]-1H-indazol-3-yl]carbonyl]-3-methyl-1-valine, methyl ester] belongs 3.02 Fold.
For the compound `CCCCCCC(C)(C)C1=CC(=O)C([C@H]2CCC[C@@H](O)C2)=CC1=O` [Example 61, 3′R-hydroxy-4-(2-methyloctan-2-yl)-[1,1′S-bi(cyclohexane)]-3,6-diene-2,5-dione], the “Induction Fold” value is given as 2.85 Fold.
